# Laboratory results taken from patent US20150259747A1, “METHOD OF PREDICTING A PREDISPOSITION TO QT PROLONGATION” (priority 2007, published 2015).
# Tested on: individuals genotyped at the rs993648 locus
# Assay: QT interval change after two weeks of oral iloperidone in 174 individuals genotyped at the CERKL rs993648 locus
# Type: in vivo, human
# Settings: iloperidone 24 mg/day B.I.D. oral; for High QT, - test (number of individuals) / Low QT, - test (number of individuals): rs993648 genotype AB (- test); for High QT, - test (number of individuals) / High QT, + test (number of individuals) / Low QT, - test (number of individuals) / Low QT, + test (number of individuals): n=174; for High QT, + test (number of individuals) / Low QT, + test (number of individuals): rs993648 genotype non-AB (+ test)
# Protocol: Since the QT interval changes with changes in heart rate, the QT interval is often measured as a corrected QT (QTc) interval. Any number of formulas may be employed to calculate the QTc, including, for example, the Fridericia formula (QTcF), the Bazett formula (QTcB), and the Rautaharju formula (QTp), among others. In the studies described herein, QT was calculated using the Fridericia formula. However, the present invention includes the use of any such formula or method for calculating a QTc or an uncorrected QT. Using the genotypes at the SNP loci above, it is possible, with a high degree of certainty, to predict an individual's predisposition to QT prolongation.
# [1] = QTc change threshold >5 msec not exceeded
# [2] = QTc change threshold >15 msec not exceeded
# [3] = QTc change threshold >30 msec not exceeded
compound,measurement,setting,value
COc1cc(C(C)=O)ccc1OCCCN1CCC(c2noc3cc(F)ccc23)CC1 [iloperidone],Odds Ratio,QTc change >5 msec vs rs993648 non-AB genotype,3.62
same,"High QT, - test (number of individuals)",QTc change >5 msec,38
same,"High QT, + test (number of individuals)",QTc change >5 msec,72
same,Odds Ratio,QTc change >15 msec vs rs993648 non-AB genotype,4.45
same,"High QT, - test (number of individuals)",QTc change >15 msec,18
same,"High QT, + test (number of individuals)",QTc change >15 msec,53
same,Odds Ratio,QTc change >30 msec vs rs993648 non-AB genotype,6.16
same,"High QT, - test (number of individuals)",QTc change >30 msec,4
same,"High QT, + test (number of individuals)",QTc change >30 msec,23
same,"Low QT, - test (number of individuals)",[1],42
same,"Low QT, + test (number of individuals)",[1],22
same,"Low QT, - test (number of individuals)",[2],62
same,"Low QT, + test (number of individuals)",[2],41
same,"Low QT, - test (number of individuals)",[3],76
same,"Low QT, + test (number of individuals)",[3],71
